ChEMBL document CHEMBL5465560, “Selectivity Literature for EUbOPEN Chemogenomic Library” (2024)

Columns and labels:
[1] = molecular target: Receptor tyrosine-protein kinase erbB-4 (Homo sapiens, UniProt Q15303); conditions: at 10 µM
[2] = molecular target: Endothelin receptor type B (Homo sapiens) (UniProt P24530); test: Selectivity interaction (Eurofins CEREP Diversity Profile (receptors and ion channels)) EUB0000279b EDNRB; conditions: at 10 µM
[3] = system: Proto-oncogene tyrosine-protein kinase receptor Ret (Homo sapiens), P07949 [M918T]; test: (§1) Selectivity interaction (KinomeScan (DiscoverX)) EUB0001079a RET; conditions: at 1 µM
[4] = system: Proto-oncogene tyrosine-protein kinase receptor Ret (Homo sapiens), P07949 [V804M]; test: as §1; conditions: at 1 µM
[5] = system: Proto-oncogene tyrosine-protein kinase receptor Ret (Homo sapiens), P07949 [V804L]; test: as §1; conditions: at 1 µM
[6] = molecular target: Proto-oncogene tyrosine-protein kinase receptor Ret (Homo sapiens, UniProt P07949); test: as §1; conditions: at 1 µM
[7] = molecular target: T1, Ephrin type-B receptor 4 (Homo sapiens) (UniProt P54760); test: Selectivity interaction (Millipore kinase profiler) EUB0000124b EPHB4; conditions: at 10 µM
T1 sequence (whole entry): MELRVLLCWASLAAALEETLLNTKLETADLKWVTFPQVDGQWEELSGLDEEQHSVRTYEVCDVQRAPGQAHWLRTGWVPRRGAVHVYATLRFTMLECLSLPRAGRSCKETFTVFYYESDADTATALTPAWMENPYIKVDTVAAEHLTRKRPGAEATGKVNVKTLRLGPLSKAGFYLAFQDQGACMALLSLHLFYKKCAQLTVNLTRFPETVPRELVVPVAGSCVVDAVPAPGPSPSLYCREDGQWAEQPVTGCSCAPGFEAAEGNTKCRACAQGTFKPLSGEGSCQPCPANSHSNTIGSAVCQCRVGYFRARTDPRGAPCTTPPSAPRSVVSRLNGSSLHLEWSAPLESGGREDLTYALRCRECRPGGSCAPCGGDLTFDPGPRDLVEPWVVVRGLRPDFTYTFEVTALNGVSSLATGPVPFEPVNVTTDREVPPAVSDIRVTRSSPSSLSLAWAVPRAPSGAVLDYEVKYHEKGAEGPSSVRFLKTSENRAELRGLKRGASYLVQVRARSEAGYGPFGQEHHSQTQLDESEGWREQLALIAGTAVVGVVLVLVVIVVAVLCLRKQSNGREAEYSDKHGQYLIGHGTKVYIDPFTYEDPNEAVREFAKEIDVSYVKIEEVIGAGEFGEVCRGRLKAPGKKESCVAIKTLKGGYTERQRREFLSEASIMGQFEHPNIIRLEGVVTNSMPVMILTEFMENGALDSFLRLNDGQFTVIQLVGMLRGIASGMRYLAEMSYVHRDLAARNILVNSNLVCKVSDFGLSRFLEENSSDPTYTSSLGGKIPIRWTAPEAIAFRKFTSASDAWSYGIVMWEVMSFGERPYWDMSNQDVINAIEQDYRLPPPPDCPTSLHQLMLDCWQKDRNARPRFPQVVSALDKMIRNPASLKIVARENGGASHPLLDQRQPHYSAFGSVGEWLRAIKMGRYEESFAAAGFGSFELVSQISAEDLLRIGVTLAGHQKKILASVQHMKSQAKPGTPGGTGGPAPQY

[8] = molecular target: Myosin-IIIa (Homo sapiens) (UniProt Q8NEV4); test: Selectivity interaction (KinomeScan (DiscoverX)) EUB0000607a MYO3A; conditions: at 10 µM
[9] = molecular target: Serine/threonine-protein kinase RIO2 (Homo sapiens) (UniProt Q9BVS4); test: Selectivity interaction (KinomeScan (DiscoverX)) EUB0001619a RIOK2; conditions: at 1 µM
[10] = molecular target: Cyclin-dependent kinase 4/cyclin D1 (Homo sapiens) (UniProt P11802+P24385); test: (§2) Selectivity interaction (KinomeScan (DiscoverX)) EUB0000595a CDK4; type: protein-complex assay; conditions: at 10 µM
[11] = molecular target: CDK4/Cyclin D3 (Homo sapiens) (UniProt P11802+P30281); test: as §2; type: protein-complex assay; conditions: at 10 µM
[12] = molecular target: T2, Scaffold protein ILK (Homo sapiens) (UniProt Q13418); test: Selectivity interaction (ActivX KiNativ screen (kinase selectivity in THP-1 cell lysates)) EUB0000639a ILK; type: subcellular; conditions: lysate, at 0.2 µM
T2 sequence (whole entry): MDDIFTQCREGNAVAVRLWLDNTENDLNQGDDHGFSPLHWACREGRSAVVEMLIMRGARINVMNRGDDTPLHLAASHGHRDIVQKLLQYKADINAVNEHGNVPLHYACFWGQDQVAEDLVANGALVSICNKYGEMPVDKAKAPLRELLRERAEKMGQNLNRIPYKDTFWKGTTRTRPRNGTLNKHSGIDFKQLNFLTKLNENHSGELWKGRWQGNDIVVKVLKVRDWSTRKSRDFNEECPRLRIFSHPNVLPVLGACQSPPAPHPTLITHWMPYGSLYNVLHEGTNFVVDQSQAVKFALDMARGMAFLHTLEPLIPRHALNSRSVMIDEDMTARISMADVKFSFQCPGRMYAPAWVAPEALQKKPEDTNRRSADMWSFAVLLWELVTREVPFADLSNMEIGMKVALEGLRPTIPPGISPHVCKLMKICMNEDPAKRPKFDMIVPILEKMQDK

[13] = molecular target: Insulin receptor-related protein (Homo sapiens) (UniProt P14616); test: Selectivity interaction (Kinase panel (Invitrogen)) EUB0000639a INSRR; conditions: at 200 nM
[14] = molecular target: CDK8/Cyclin C (Homo sapiens) (UniProt P49336+P24863); test: Selectivity interaction (ProQinase) EUB0000171b CDK8; type: protein-complex assay
[15] = molecular target: Cyclin-dependent kinase 7 (Homo sapiens, UniProt P50613); test: Selectivity interaction (KinomeScan (DiscoverX)) EUB0001049a CDK7; conditions: at 1 µM
[16] = molecular target: 5-hydroxytryptamine receptor 1B (Homo sapiens) (UniProt P28222); test: Selectivity interaction (Panel of kinases, GPCRs, ion channels and transporters (enzymatic assay)) EUB0000223bCl HTR1B
[17] = system: Proto-oncogene tyrosine-protein kinase receptor Ret (Homo sapiens), P07949 [M918T]; test: (§3) Selectivity interaction (LanthaScreen Eu Kinase Binding Assay) EUB0001632a RET; conditions: at 10 µM
[18] = system: Proto-oncogene tyrosine-protein kinase receptor Ret (Homo sapiens), P07949 [V804M]; test: as §3; conditions: at 10 µM
[19] = system: Proto-oncogene tyrosine-protein kinase receptor Ret (Homo sapiens), P07949 [G691S]; test: as §3; conditions: at 10 µM
[20] = molecular target: Platelet-derived growth factor receptor alpha (Homo sapiens, UniProt P16234); test: Selectivity interaction (Kinase screening (Upstate/Millipore)) EUB0000604a PDGFRA
Sequence of Platelet-derived growth factor receptor alpha (P16234 whole entry): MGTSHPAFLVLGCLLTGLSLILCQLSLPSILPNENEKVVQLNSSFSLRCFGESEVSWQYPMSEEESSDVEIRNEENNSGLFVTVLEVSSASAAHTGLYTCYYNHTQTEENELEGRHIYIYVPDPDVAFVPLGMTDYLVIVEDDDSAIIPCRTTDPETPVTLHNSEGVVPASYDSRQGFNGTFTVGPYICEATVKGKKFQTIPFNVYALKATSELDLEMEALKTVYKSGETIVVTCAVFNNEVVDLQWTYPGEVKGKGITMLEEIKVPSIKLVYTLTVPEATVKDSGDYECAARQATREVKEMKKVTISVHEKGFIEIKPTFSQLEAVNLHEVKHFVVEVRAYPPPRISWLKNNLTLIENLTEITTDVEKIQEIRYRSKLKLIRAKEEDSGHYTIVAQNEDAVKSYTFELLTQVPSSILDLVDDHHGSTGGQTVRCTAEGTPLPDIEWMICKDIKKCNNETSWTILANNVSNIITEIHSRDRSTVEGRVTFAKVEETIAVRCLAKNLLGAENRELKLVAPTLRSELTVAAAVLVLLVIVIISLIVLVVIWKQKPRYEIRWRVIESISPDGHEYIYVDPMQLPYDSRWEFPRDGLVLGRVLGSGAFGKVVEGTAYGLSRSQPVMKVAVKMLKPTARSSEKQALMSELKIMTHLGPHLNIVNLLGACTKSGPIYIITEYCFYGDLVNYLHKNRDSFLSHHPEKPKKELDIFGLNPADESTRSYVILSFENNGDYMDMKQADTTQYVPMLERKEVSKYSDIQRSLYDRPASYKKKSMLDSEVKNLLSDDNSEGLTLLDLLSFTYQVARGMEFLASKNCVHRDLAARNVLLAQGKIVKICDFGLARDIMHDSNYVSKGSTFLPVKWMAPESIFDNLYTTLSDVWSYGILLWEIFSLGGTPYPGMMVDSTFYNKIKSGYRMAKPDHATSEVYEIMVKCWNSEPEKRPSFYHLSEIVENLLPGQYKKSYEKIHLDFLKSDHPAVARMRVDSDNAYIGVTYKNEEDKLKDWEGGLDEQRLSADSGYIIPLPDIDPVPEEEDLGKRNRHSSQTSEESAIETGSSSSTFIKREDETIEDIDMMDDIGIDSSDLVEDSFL

Sequence of Proto-oncogene tyrosine-protein kinase receptor Ret (Homo sapiens), P07949 [M918T] (P07949 whole entry M918T): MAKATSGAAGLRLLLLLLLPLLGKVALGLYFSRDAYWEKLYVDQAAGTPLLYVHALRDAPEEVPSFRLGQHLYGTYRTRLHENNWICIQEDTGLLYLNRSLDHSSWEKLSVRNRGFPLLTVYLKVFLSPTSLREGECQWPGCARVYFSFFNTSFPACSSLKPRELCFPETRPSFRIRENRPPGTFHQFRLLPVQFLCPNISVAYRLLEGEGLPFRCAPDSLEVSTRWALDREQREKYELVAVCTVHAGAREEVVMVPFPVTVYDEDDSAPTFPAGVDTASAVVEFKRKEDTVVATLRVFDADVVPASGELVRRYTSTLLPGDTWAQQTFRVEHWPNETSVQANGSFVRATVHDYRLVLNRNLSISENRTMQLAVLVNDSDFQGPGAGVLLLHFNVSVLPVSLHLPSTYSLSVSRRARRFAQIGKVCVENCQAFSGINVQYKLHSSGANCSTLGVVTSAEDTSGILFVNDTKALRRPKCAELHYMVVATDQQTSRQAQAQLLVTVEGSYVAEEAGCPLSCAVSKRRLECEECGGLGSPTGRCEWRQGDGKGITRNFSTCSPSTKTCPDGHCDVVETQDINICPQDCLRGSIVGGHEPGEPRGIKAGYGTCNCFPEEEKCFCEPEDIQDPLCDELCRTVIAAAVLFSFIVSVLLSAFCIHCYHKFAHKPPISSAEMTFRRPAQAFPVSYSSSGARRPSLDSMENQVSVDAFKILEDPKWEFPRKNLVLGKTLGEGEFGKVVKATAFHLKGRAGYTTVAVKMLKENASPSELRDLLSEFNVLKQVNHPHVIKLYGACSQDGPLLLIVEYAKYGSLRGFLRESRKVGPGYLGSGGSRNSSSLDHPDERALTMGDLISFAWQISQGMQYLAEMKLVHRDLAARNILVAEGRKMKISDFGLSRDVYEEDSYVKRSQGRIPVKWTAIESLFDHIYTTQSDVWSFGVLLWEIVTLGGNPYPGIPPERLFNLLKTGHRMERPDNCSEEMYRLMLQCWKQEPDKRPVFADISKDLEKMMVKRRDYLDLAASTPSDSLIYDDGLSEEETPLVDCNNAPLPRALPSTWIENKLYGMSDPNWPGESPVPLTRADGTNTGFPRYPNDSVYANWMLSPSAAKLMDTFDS
Sequence of Proto-oncogene tyrosine-protein kinase receptor Ret (Homo sapiens), P07949 [V804M] (P07949 whole entry V804M): as the sequence (P07949 whole entry M918T) above, with V804M, T918M counted along it
Sequence of Proto-oncogene tyrosine-protein kinase receptor Ret (Homo sapiens), P07949 [V804L] (P07949 whole entry V804L): as the sequence (P07949 whole entry M918T) above, with V804L, T918M counted along it
Sequence of Endothelin receptor type B (Homo sapiens) (P24530 whole entry): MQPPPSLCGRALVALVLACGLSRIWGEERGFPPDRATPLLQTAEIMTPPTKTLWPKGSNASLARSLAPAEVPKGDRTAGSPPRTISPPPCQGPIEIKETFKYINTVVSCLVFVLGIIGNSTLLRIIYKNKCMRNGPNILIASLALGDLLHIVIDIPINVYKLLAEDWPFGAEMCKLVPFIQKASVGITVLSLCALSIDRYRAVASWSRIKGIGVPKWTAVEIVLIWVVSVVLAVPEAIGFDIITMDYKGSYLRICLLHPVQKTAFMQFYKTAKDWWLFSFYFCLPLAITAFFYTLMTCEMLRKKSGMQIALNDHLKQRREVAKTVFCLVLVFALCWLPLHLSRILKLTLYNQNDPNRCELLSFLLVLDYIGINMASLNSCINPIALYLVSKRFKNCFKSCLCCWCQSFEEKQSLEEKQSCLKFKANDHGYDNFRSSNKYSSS

CCN(CC)CCCCNc1ncc2cc(-c3cc(OC)cc(OC)c3)c(NC(=O)NC(C)(C)C)nc2n1
% of control [1]: 100%

CC(=O)c1cc(-c2ccccc2OCC2CC2)c2ncccn12
% of control [2]: 84%

Nc1cnc(N2CCc3cc(S(=O)(=O)Nc4c(F)cc(Cl)cc4F)cc(N4CCCC4=O)c32)nc1 [TP-020n]
% of control [3]: 100%
% of control [4]: 100%
% of control [5]: 99%
% of control [6]: 89%

CC(=O)Nc1cccc(-n2c(=O)n(C3CC3)c(=O)c3c(Nc4ccc(I)cc4F)n(C)c(=O)c(C)c32)c1
% of control [7]: 124%

CNC(=O)Nc1ccc(-c2nc(N3CC4CCC(C3)O4)c3cnn(C4CCC5(CC4)OCCO5)c3n2)cc1
% of control [8]: 52%

N#Cc1cccc(-c2c[nH]c3ncnc(N4CCOCC4)c23)c1
% of control [9]: 75%

COCC(=O)NC/C=C/c1ccc2ncnc(Nc3ccc(Oc4ccc(C)nc4)c(C)c3)c2c1 [CP-724714]
% of control [10]: 100%
% of control [11]: 100%

CC[C@@H]1[C@H](F)C(=O)N[C@@H]1COc1nccc2cc(C(N)=O)c(OC)cc12 [ZIMLOVISERTIB]
% of inhibition [12]: -10.7%
% of inhibition [13]: 2.97%

C=CC(=O)Nc1cccc(C(=O)Nc2ccc(Nc3cc(-c4[nH]c(SC)nc4C)ccn3)cc2)c1
% of control ([14]; at 1 µM): 67%
% of control ([14]; at 5 µM): 29%

COc1cc(Nc2nc(C)cc(-c3cnn4nc(OC)ccc34)n2)cc(C(F)(F)F)c1
% of control [15]: 73%

COc1cc(C(=O)N2CC[C@@H](O)[C@@H](N)C2)cc2nc(-c3cc4ccccc4n3CC3CC3)n(C)c12
pXC50 [16]: < 4.5 M

Cn1cc(-n2cnc3c(NCc4nc5cc(Cl)c(Cl)cc5[nH]4)nc(N4CCOCC4)nc32)cn1
% of inhibition [17]: -33.9%
% of inhibition [18]: -50.1%
% of inhibition [19]: -30.5%

Cc1cnc(Nc2ccc(F)cc2Cl)nc1-c1c[nH]c(C(=O)N[C@H](CO)c2cccc(Cl)c2)c1
% of inhibition [20]: 3%
